Test results published in PubChem BioAssay AID1508612.

Test: passive permeability, PAMPA, ADME assay (AID 1508612)
Settings: pH 7.4, 30.0 min, 50.0 µM

Row | Structure (SMILES) | Papp [×10⁻⁶ cm/s]
1 | NC(=O)c1cnc(N[C@@H]2CCCC[C@@H]2N)nc1Nc1cccc(-n2nccn2)c1 | 11.7
2 | Cc1ccc(S(=O)(=O)Nc2cnccc2C(=O)Nc2ccc(-c3nc4ccccc4[nH]3)cc2)cc1 | 2.2
3 | COc1ccc(S(=O)(=O)N(CC(=O)Nc2ccc(C)cc2)c2ccc(C)cc2)cc1OC | > 1000
4 | CN1C(=O)C(=O)N2C(=C[C@]3(c4c[nH]c5ccccc45)c4ccccc4N[C@H]23)C1=O | 209
5 | COc1cc(C2CC(=O)Nc3cc4c(cc32)OCCO4)cc(Br)c1OC (stereo unspecified) | 376
6 | O=C1CCc2cc(S(=O)(=O)Nc3ccc(F)c(Cl)c3)c(F)cc2N1 | 861
7 | CN1Cc2c(cc(N3CCOCC3)nc2-c2ccccc2OC(F)(F)F)C1=O | > 1000
8 | CN1CCN(Cc2ccc(-c3ccc(C(C)(C)C#N)cc3)nc2)CC1 | > 1000
9 | COC(=O)c1ccc(O)c2ncc(N3CCN(C)CC3)cc12 | 845
10 | NC(=O)C1CCN(c2nc(-c3ccccc3)cs2)CC1 | 598
11 | CC(C)n1cc(-c2ccc3c(c2)N(C)CC3)c2c(NS(=O)(=O)c3ccn(C)n3)ccnc21 | > 1000
12 | C[C@@H]1C(=O)O[C@H]2[C@H]1CC[C@@]1(C)Cc3sc(NS(=O)(=O)Cc4ccccc4)nc3[C@@H](C)[C@H]21 | > 1000
13 | CC(C)(C)c1ccc(-c2csc(N3CCC(C(N)=O)CC3)n2)cc1 | 370
14 | COc1ccc2c(c1)CCc1c-2n[nH]c1C(=O)N1CCc2c(nc3cc(-c4ccccc4)[nH]n3c2=O)C1 | 15.8
15 | COc1cccc(C(=O)Nc2nc(-c3nnn(-c4ccccc4C(F)(F)F)c3C)ns2)c1 | 383
16 | COc1ccc(NC(=O)c2[nH]c(C)c(C(C)=O)c2C)cc1S(=O)(=O)N(C)C | 329
17 | CN1C[C@@H]2C[C@H]1CN2c1cc2c(cc1F)c(=O)c(C(=O)O)cn2C1CC1 | < 1
18 | Cc1ccc(S(=O)(=O)Nc2cnccc2C(=O)Nc2nc(-c3ccc(F)cc3)cs2)cc1 | 423
19 | Cc1cc(Br)ccc1NC(=O)C(NS(=O)(=O)c1cccs1)c1ccccc1 (stereo unspecified) | < 1
20 | Cc1nn2c(c1-c1ccccc1Oc1ccccc1)N(Cc1ccccc1O)CCC2 | > 1000
21 | CC(C=CC(=O)NO)=C[C@@H](C)C(=O)c1ccc(N(C)C)cc1 | 335

Row | Structure (SMILES) | Papp [×10⁻⁶ cm/s]
22 | CN(C)C(=O)c1nc(-c2ccc(S(C)(=O)=O)cc2)c2cnccn12 | 16.8
23 | Clc1ccc2ncc(-c3cccc(NC4CCNCC4)n3)n2c1 | 807
24 | O=S(=O)(c1ccc2ccccc2c1)N1CCN(c2nc(-c3cccs3)nc3ccccc23)CC1 | 3.2
25 | c1cc(-c2cc(-c3ccncc3)c3cncn3c2)c2cc[nH]c2c1 | 236
26 | Cn1ncnc1[C@H]1c2n[nH]c(=O)c3cc(F)cc(c23)N[C@@H]1c1ccc(F)cc1 | 60.5
27 | COc1cc2c3cc1Oc1c(O)c(OC)cc4c1[C@@H](Cc1ccc(cc1)Oc1cc(ccc1O)C[C@H]3N(C)CC2)N(C)CC4 | 327
28 | Cc1ccc(S(=O)(=O)N[C@@H](Cc2ccccc2)C(=O)CCl)cc1 | 323
29 | CC(=O)c1ccc(N2CCN(S(=O)(=O)c3ccc4c(c3)n(C)c(=O)n4C)CC2)cc1 | 306
30 | CC(=O)c1c(C)c(C(=O)Nc2cccc([S+](=O)([O-])N(C)C)c2)n(C)c1C | 295
31 | COc1ccc2c(ccn2CCC(=O)Nc2ccc3c(c2)C(=O)N2CCC[C@H]2C(=O)N3)c1 | 22.6
32 | COc1cccc(-c2nc(-c3c(C)noc3C)cc3[nH]c(C)cc23)c1OC | > 1000
33 | O=C(O)c1ccnc2cc(C(OCC3CCC(F)(F)CC3)c3ccccc3Cl)[nH]c12 (stereo unspecified) | 75.6
34 | COC(=O)CNC(=O)c1nc(-c2ccc(Cl)cc2Cl)c2cnccn12 | > 1000
35 | O=C(Nc1ccc2oc(-c3cccnc3)nc2c1)c1ccc(-c2cccc(Cl)c2)o1 | 310
36 | COc1cc2c(C(=O)N3CCN(c4cccc(C(F)(F)F)c4)CC3)cn(CC(C)C)c(=O)c2cc1OC | > 1000
37 | CNc1oc(-c2ccccc2-c2ccccc2)nc1C#N | 906
38 | Fc1cc(Nc2nc(-c3ccncc3)nc3ccccc23)ccc1-c1cn[nH]c1 | 36.1
39 | CC(=O)c1c(C)[nH]c(C(=O)Nc2cccc([S+](=O)([O-])N3CCC(F)(F)CC3)c2)c1C | > 1000
40 | CN(C)c1ccc(-c2csc(N3CCC(C(N)=O)CC3)n2)cc1 | 3.06
41 | Cc1ccc(S(=O)(=O)Nc2ccccc2C(=O)Nc2nc(-c3ccccc3)cs2)cc1 | > 1000
42 | NC(=O)C1CCN(c2ncc(-c3ccc(Br)cc3)s2)CC1 | 688

Second part, the molecule after the results:

Row | Papp [×10⁻⁶ cm/s] | Structure (SMILES)
43 | 328 | CC(=O)c1cccc(-c2csc(N3CCC(C(N)=O)CC3)n2)c1
44 | 177 | CCOC(=O)C1CCN(C(=O)C2(NC(=O)Nc3ccc(F)cc3F)CCCCC2)CC1
45 | < 1 | O=C(NC1CCCc2c1cnn2-c1ccc(F)cc1F)c1ccc(C2(C(F)(F)F)N=N2)cc1 (stereo unspecified)
46 | 53.5 | O=C(Nc1cc(C(F)(F)F)ccc1N1CCOCC1)c1n[nH]c(=O)c2ccccc12
47 | < 1 | C=C1c2cccc(O)c2C(O)=C2C(=O)[C@]3(O)C(O)=C(C(N)=O)C(=O)[C@@H](N(C)C)[C@@H]3[C@@H](O)[C@H]12
48 | 18.5 | C[C@]1(CO)CN(c2cc(C(=O)Nc3ccc4c(c3)-c3c(c(C(N)=O)nn3-c3ccc(F)cc3)CC4)c(Cl)cn2)C[C@@]1(C)CO
49 | 118 | COc1cc(C2c3c(oc4cc(C)c(C)cc4c3=O)C(=O)N2CCCN2CCOCC2)ccc1O (stereo unspecified)
50 | 613 | Nc1c(-c2ccccc2)cc[nH]c1=O
51 | 771 | C=Cc1ccc(Cn2c(C(=O)O)c(CNC3CCCCC3)c3ccc(OC)cc32)cc1
52 | 799 | CC1CCN(S(=O)(=O)c2ccc3c(ccc(=O)n3CC(=O)NCc3ccc(Cl)cc3)c2)CC1
53 | 725 | CCOC(=O)C1CCN(C(=O)C(C)(C)NC(=O)Nc2ccc(Cl)cc2Cl)CC1
54 | > 1000 | CCCNC(=O)c1ccc2c(c1)N=C(C)c1c(C)ccc(C)c1S2
55 | 182 | Clc1ccc2ncc(-c3cccc(NC4CNC4)n3)n2c1
56 | 24.5 | Cc1cc(-c2nnc3n2CCCCC3)c(C)n1-c1ccncc1
57 | < 1 | CCOc1cccc(C(=O)Nc2nc3c(s2)CC(C(C)(C)C)CC3)c1 (stereo unspecified)
58 | 292 | NC(=O)C1CCN(c2nc(-c3ccc(C(F)(F)F)cc3)cs2)CC1
59 | 679 | O=C(c1ccccc1)N1CCC(c2nn(-c3ccc(F)cc3)c(=O)[nH]2)CC1
60 | 405 | COCCNC(=O)c1ccc(-c2ncc3cnc(-c4cccc(F)c4)cn23)cc1
61 | 3.6 | COc1cnccc1-c1nc(Nc2ccc(F)c(F)c2)c2ccccc2n1
62 | 692 | NC(=O)C1CCN(c2ncc(-c3ccc4c(c3)OCO4)s2)CC1

Row | Papp [×10⁻⁶ cm/s] | Structure (SMILES)
63 | 197 | O=C(Cc1ccc(O)cc1)N1CC(CNc2ccccc2)C2(C1)CN(c1ccccc1)C2 (stereo unspecified)
64 | 950 | COC(=O)C1=C(C)NC(C)=C(C(=O)O[C@@H]2CCCN(Cc3ccccc3)C2)[C@@H]1c1cccc([N+](=O)[O-])c1
65 | < 1 | O=C(Nc1ncc(Cc2ccc(C(F)(F)F)cc2)s1)c1cnc(-c2ccccc2)[nH]1
66 | 61.5 | NC(=O)C1CCN(c2ncc(Br)cn2)CC1
67 | 7.93 | O=[S+]([O-])(Nc1ccc(N2CCNCC2)cc1)c1ccc(NCc2ccc(Br)cc2O)cc1
68 | 550 | O=[N+]([O-])c1cccc(CSc2nc3ncc(Br)cc3[nH]2)c1
69 | 3.4 | Cc1ccc(S(=O)(=O)n2cc(C(=O)Nc3nc(-c4ccccc4)cs3)c3ccccc32)cc1
70 | 109 | Cn1cnc(-c2nccc3c(=O)[nH]c(OCCCC(F)(F)F)nc23)c1
71 | 47 | O=C1CCCC2=C1C(c1[nH]ncc1Cl)N=C(Nc1nc3cc([S+](=O)([O-])N4CCCC4)ccc3o1)N2 (stereo unspecified)
72 | 737 | COc1ccc(NS(=O)(=O)c2ccc(C)c(C(=O)Nc3ccc4oc(C)nc4c3)c2)cc1
73 | 136 | Cc1cn2nc(-c3nc(C4CCCN(C(=O)c5ccccc5)C4)no3)cc2c(=O)[nH]1 (stereo unspecified)
74 | 169 | CC[C@H](Nc1ncnc2nc[nH]c12)c1nc2cccc(F)c2c(=O)n1-c1ccccc1
75 | 997 | Cc1ccc2nc(NC3=NC(c4[nH]ncc4Cl)C4=C(CCCC4=O)N3)oc2c1 (stereo unspecified)
76 | > 1000 | COc1ccc(/C=C2/C(=O)Nc3ccccc32)cc1O
77 | 353 | CCOC(=O)c1ccc(-n2c(C)cc(-c3nnc4n3CCCCC4)c2C)cc1
78 | 343 | O=C1Nc2ccccc2/C1=C\c1ccc(O)c(F)c1
79 | > 1000 | CCCOC(=O)c1ccc(Oc2c(-c3ccc(O)cc3O)n[nH]c2C)cc1
80 | > 1000 | Cc1cc(C)nc(NC(=S)N2CCN(c3ccc(Cl)cc3F)CC2)c1
81 | > 1000 | O=C(Nc1nc(-c2ccccc2)cs1)c1ccncc1NS(=O)(=O)c1ccc(F)cc1Cl
82 | 278 | CCOC(=O)Nc1cc(-c2ccc(C)c(NS(C)(=O)=O)c2)nn2c(C)nnc12

Row | Papp [×10⁻⁶ cm/s] | Structure (SMILES)
83 | 93.6 | Fc1ccc(-c2ccc(Nc3nc(-c4ccncc4)nc4ccccc34)cc2F)cc1
84 | > 1000 | Cc1cnc(-c2ccccc2C(C)(C)C)nc1NCc1ccc(-n2ccnn2)cc1
85 | > 1000 | COc1cc(Nc2nc(-c3ccncc3)nc3ccccc23)ccc1N1CCN(C)CC1
86 | 696 | COc1cccc(S(=O)(=O)Nc2cnccc2C(=O)Nc2nc(-c3ccccc3)cs2)c1
87 | 487 | O=S(=O)(Nc1ccccc1)c1ccc(NCc2cccc(Cl)c2O)cc1
88 | 996 | CN(C)CCOC1=Cc2ccccc2Sc2ccc(Cl)cc21
89 | > 1000 | CCOc1ccc(CCNC(=O)c2cc3ccccc3n2Cc2cc(C)cc(C)n2)cc1OCC
90 | 300 | CCc1ccc(S(=O)(=O)Nc2cnccc2C(=O)Nc2nc(-c3ccccc3)cs2)cc1
91 | > 1000 | Cc1ccc(S(=O)(=O)Nc2cnccc2C(=O)Nc2nc(-c3ccc(C)c(C)c3)cs2)cc1
92 | 7.61 | O=C(c1ccc(C(=O)N2CCC(N3CCCC3)CC2)c(Nc2ccccc2)c1)N1CCC(N2CCCC2)CC1
93 | > 1000 | O=c1cc(CN2CCCN(c3ccc(C(F)(F)F)cn3)CC2)nc2ccccn12
94 | 599 | COc1ccc(C(=O)N2CCCC(c3nn(-c4ccc(OC)cc4)c(=O)[nH]3)C2)cc1 (stereo unspecified)
95 | 939 | COC(=O)c1nc(-c2cccc3ccccc23)oc1OC
96 | 755 | O=C(Nc1nc(-c2ccc(F)cc2)cs1)c1ccncc1NS(=O)(=O)c1ccc(F)cc1
97 | 40.6 | CC(=O)NCCNC(=O)c1ccc(-c2ncc3cnc(-c4cccc(F)c4)cn23)cc1
98 | 25.2 | CC1(COc2ccc3c(c2)ncn3-c2ccc3cccc(N4CCC(N)CC4)c3n2)COC1
99 | 10.1 | O=C(O)C1CCN(c2ncc(-c3ccc4c(c3)OCCCO4)s2)CC1
100 | 695 | Cc1ccc(-n2nc3c(=O)n(CCCC(=O)NC(C)c4ccccc4)nc(C)c3c2C)cc1 (stereo unspecified)
101 | 629 | NC(=O)C1CCN(c2nc(-c3ccc4c(c3)OCCCO4)cs2)CC1
